{
  "source": "ChEMBL document CHEMBL1201862",
  "about": "“PubChem BioAssay data set” (2004)",
  "key": {"Streptokinase A": {"molecular_target": "T1, Streptokinase A (Streptococcus pyogenes serotype M1, UniProt P10520)", "T1 sequence (P10520 whole entry)": "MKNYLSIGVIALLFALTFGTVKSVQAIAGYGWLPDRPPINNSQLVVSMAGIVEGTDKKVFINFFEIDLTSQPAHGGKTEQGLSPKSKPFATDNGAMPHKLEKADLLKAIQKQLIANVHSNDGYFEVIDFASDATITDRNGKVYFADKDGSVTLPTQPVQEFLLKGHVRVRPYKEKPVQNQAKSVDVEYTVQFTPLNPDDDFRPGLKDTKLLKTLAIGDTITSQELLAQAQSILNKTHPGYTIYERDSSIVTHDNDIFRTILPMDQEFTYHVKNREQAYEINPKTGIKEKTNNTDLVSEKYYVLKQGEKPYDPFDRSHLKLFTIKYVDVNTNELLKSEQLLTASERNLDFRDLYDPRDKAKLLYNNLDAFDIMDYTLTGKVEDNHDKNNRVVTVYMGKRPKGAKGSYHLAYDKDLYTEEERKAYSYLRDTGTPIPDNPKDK", "test": "S. pyogenes streptokinase expression inhibitors, potency, dose response, plasminogen activation absorbance, OD405 (AID 1914);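 further: secreted streptokinase activity via plasminogen activation per viability signal from cell pellet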", "assay_type": "functional, Streptococcus pyogenes M1 GAS"}, "Streptococcus": {"test_system": "Streptococcus", "test": "Group A Streptococcus viability loss, dose response, counter-screen for streptokinase expression inhibitor project, luminescence, BacTiterGlo (AID 1915);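 further: potency for reduction of bacterial viability or growth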", "assay_type": "functional, organism-based"}, "[1]": {"test": "Luminescence Cell-Based Dose Retest to Confirm Inhibitors of Cancer Stem Cells. [Related pubchem assays (depositor defined):AID2717, AID2721]", "assay_type": "functional", "details": "Homo sapiens"}, "[2]": {"test_system": "Streptococcus sp. 'group A'", "test": "growth inhibition of control SK(-) GAS strain, dose response, counter-screen for streptokinase expression inhibitor project, luminescence, kanamycin, BacTiterGlo, confirmation (AID 1900)", "assay_type": "functional, organism-based"}, "[3]": {"test": "microbe, parasite or virus in culture", "assay_type": "functional", "details": "Mycobacterium tuberculosis"}, "[4]": {"molecular_target": "Disintegrin and metalloproteinase domain-containing protein 17 (Homo sapiens, UniProt P78536)", "sequence (P78536 whole entry, the tested form may be a part)": "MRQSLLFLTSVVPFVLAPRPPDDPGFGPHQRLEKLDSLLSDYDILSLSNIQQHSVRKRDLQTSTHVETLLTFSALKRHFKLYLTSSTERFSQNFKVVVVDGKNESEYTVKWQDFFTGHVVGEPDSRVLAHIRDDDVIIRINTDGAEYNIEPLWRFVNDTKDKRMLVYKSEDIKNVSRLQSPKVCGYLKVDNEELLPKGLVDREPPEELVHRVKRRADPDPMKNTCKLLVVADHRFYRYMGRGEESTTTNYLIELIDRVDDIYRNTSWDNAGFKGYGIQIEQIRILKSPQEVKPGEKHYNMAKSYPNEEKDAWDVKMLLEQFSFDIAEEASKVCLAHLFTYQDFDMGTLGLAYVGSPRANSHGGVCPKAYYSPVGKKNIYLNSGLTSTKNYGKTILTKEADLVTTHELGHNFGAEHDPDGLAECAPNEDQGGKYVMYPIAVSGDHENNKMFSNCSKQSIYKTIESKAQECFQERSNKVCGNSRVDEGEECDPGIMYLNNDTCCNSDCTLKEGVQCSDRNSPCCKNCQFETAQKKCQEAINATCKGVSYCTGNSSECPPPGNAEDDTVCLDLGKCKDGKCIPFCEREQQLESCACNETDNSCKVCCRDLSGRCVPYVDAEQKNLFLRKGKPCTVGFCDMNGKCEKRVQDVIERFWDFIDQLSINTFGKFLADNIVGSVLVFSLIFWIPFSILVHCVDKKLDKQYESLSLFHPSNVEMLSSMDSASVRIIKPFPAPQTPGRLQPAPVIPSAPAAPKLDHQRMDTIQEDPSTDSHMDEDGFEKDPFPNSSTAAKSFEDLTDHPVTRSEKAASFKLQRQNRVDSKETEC", "test": "ADAM17 protease inhibitors, dose response, counter-screen for ADAM10 exosite inhibitor project, biochemical, quenched FRET substrate (AID 743253)"}, "[5]": {"molecular_target": "Mitogen-activated protein kinase 10 (Homo sapiens, UniProt P53779)", "sequence (P53779 whole entry)": "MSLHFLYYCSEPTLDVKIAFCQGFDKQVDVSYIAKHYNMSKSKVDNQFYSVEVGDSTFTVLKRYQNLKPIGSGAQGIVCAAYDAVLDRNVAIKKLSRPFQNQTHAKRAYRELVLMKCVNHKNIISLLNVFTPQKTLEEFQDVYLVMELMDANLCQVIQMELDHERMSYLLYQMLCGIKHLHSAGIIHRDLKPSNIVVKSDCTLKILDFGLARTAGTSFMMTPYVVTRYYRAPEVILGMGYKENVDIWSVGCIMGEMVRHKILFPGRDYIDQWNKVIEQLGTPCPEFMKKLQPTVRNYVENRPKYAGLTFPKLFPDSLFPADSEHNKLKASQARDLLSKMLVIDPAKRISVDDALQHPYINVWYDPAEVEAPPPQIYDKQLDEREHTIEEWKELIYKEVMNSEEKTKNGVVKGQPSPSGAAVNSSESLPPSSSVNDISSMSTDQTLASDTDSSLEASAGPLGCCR", "test": "Dose response biochemical screening assay for inhibitors of c-Jun N-Terminal Kinase 3 (JNK3). [Related pubchem assays: 746 ]"}, "fMet-Leu-Phe receptor": {"molecular_target": "T2, fMet-Leu-Phe receptor (Homo sapiens, UniProt P21462)", "T2 sequence (P21462 whole entry)": "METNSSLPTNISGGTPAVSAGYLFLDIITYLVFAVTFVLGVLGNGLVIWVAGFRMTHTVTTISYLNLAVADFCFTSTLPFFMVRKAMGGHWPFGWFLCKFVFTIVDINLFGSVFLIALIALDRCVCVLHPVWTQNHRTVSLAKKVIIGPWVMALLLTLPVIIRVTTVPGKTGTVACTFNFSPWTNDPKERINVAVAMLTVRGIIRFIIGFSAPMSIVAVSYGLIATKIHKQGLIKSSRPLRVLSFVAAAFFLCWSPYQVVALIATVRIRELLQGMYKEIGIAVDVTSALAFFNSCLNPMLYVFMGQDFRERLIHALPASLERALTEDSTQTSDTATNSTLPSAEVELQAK", "test": "FPR ligands, dose response (AID 519)", "assay_type": "functional"}, "Cytochrome P450 1A2": {"molecular_target": "T3, Cytochrome P450 1A2 (Homo sapiens, UniProt P05177)", "T3 sequence (P05177 whole entry)": "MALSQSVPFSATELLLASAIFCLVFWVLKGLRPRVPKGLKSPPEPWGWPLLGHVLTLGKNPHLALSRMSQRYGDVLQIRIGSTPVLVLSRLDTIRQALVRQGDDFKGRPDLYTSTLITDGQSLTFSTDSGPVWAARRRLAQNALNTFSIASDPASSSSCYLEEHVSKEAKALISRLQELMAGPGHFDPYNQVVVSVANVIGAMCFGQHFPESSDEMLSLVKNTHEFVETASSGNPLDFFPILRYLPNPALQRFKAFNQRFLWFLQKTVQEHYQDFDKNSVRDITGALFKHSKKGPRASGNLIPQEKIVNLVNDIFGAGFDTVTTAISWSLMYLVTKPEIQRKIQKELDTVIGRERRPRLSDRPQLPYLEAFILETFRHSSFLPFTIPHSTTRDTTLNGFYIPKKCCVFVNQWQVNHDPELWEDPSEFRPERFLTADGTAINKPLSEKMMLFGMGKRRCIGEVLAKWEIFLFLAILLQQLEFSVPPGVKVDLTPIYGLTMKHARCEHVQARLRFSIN"}, "Cytochrome P450 2D6": {"molecular_target": "Cytochrome P450 2D6 (Homo sapiens, UniProt P10635)", "sequence (P10635 whole entry)": "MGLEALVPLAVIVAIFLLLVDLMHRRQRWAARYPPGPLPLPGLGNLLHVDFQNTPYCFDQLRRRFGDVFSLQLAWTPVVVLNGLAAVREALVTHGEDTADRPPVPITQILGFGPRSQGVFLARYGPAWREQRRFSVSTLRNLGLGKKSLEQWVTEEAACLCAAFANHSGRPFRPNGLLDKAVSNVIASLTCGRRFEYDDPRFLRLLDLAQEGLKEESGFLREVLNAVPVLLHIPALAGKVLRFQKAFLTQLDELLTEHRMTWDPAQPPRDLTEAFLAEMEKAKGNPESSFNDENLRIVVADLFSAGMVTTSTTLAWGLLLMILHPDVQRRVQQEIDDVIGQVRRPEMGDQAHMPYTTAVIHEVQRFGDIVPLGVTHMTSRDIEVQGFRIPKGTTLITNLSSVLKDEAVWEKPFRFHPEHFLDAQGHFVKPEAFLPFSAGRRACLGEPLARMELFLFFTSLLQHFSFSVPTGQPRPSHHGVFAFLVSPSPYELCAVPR"}, "Kallikrein-7": {"molecular_target": "Kallikrein-7 (Homo sapiens, UniProt P49862)", "sequence (P49862 whole entry)": "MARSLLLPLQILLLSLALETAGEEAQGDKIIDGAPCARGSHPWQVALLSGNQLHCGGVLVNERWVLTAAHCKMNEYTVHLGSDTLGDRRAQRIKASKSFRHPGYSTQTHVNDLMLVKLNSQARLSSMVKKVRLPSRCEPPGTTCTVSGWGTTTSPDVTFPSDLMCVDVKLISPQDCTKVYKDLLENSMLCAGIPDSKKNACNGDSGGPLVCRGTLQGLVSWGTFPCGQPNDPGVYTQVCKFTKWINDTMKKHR", "test": "Fluorescence Intensity-based biochemical primary high throughput dose response assay to identify activators of kallikrein-7 (K7) zymogen."}, "Aminopeptidase N": {"molecular_target": "T4, Aminopeptidase N (Plasmodium falciparum FcB1/Columbia, UniProt O96935)", "T4 sequence (O96935 whole entry)": "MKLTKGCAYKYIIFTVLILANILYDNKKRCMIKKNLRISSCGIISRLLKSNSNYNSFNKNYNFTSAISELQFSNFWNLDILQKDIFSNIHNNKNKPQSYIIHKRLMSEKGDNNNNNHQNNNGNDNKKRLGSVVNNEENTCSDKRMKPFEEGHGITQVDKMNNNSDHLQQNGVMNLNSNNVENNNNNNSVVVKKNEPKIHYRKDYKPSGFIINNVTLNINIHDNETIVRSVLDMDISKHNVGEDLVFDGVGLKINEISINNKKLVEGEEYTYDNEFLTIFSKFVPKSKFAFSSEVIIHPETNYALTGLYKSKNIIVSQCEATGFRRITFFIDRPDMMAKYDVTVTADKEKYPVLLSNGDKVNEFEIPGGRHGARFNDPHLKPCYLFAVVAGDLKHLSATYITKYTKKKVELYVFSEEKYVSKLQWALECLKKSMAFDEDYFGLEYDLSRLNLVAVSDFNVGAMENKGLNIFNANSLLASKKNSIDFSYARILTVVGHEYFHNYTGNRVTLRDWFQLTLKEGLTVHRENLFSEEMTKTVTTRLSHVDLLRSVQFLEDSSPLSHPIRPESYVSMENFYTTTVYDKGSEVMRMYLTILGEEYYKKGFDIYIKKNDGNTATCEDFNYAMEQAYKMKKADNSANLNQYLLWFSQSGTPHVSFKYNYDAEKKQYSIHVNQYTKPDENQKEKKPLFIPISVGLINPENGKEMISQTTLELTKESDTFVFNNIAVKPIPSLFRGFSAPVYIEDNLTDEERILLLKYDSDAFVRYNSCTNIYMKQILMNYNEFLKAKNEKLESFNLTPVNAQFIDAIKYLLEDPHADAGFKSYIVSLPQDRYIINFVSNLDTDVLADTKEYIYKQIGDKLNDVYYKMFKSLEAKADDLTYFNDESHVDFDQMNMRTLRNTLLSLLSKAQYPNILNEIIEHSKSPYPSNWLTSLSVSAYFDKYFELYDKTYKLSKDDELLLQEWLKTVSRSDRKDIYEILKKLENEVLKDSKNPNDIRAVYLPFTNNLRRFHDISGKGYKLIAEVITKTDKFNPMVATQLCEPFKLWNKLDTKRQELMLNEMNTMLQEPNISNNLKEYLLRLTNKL", "test": "P. falciparum M1AAP inhibitors, biochemical, fluorogenic H-Leu-NHMec substrate, 1536-well (AID 1445)", "design": "species or system Plasmodium falciparum 3D7, 3D7"}, "[6]": {"molecular_target": "Endoplasmic reticulum aminopeptidase 1 (Homo sapiens, UniProt Q9NZ08)", "sequence (Q9NZ08 whole entry)": "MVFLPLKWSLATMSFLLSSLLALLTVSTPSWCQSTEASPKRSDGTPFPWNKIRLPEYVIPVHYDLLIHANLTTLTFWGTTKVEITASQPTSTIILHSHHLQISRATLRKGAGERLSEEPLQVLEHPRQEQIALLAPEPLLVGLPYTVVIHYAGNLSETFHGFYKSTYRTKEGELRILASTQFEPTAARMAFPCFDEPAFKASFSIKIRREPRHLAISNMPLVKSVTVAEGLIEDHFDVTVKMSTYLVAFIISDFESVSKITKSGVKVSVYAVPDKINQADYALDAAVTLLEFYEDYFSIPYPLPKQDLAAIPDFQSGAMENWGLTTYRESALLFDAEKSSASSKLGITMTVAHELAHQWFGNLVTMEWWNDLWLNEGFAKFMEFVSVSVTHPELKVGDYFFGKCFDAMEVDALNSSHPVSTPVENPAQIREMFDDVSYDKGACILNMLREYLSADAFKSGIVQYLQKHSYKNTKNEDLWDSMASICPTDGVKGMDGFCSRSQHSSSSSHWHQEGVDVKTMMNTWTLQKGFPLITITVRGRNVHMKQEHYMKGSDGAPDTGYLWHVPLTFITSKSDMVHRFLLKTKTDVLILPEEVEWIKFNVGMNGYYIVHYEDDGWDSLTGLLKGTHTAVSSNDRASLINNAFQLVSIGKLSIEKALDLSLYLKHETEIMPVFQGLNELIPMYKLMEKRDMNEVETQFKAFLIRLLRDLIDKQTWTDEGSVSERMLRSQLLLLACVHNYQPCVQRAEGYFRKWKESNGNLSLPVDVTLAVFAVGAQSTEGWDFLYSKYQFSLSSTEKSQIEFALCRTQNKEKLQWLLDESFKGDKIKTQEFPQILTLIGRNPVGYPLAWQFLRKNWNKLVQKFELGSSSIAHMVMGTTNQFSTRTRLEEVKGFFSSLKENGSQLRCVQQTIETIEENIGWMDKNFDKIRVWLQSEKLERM", "test": "ERAP1 aminopeptidase inhibitors, dose response, biochemical, cherry-pick, set 2, plate reader (AID 743314)"}, "cells": {"test": "cells", "details": "HEK293"}},
  "note": "Calls of active or inactive are those of the source.",
  "data": [
    {"smiles": "O=C(Nc1ccc(OCC(F)(F)C(F)F)c(C(F)(F)F)c1)c1ccc(Cl)cc1", "values": [
      {"measurement": "EC50", "setting": "Streptokinase A", "value": "1.77 µM (active)"},
      {"measurement": "EC50", "setting": "Streptococcus", "value": "7.49 µM (active)"},
      {"measurement": "AC50", "setting": "[1]", "value": "3.52 µM (active)"},
      {"measurement": "EC50", "setting": "[2]", "value": "5.77 µM (active)"},
      {"measurement": "CC50", "setting": "[3]", "value": "13.4 µM (active)"},
      {"measurement": "IC50", "setting": "[4]", "value": "> 69.5 µM (inactive)"}
    ]},
    {"smiles": "Cc1ccc(C(=O)C2=C(O)C(=O)N(CCCn3ccnc3)C2c2ccc(OC(C)C)cc2)o1", "note": "(stereo not given)", "values": [
      {"measurement": "IC50", "setting": "[5]", "value": "37.4 µM (not active)"},
      {"measurement": "Ki", "setting": "fMet-Leu-Phe receptor", "value": "> 66.7 µM (inactive)"},
      {"measurement": "AC50", "setting": "Cytochrome P450 1A2", "value": "39.8 µM (inconclusive)"},
      {"measurement": "AC50", "setting": "Cytochrome P450 2D6", "value": "12.6 µM (inconclusive)"}
    ]},
    {"smiles": "O=c1c(-c2ccccc2)coc2c(CN3CCOCC3)c(O)ccc12", "values": [
      {"measurement": "EC50", "setting": "Kallikrein-7", "value": "12.4 µM (inactive)"}
    ]},
    {"smiles": "Cc1cc(=O)oc2c(CN3CCN(C)CC3)c(O)c(Cl)cc12", "values": [
      {"measurement": "IC50", "setting": "Aminopeptidase N", "value": "33.6 µM (active)"},
      {"measurement": "AC50", "setting": "[6]", "value": "6.77 µM (active)"}
    ]},
    {"smiles": "CCCOc1c(Br)cc(C2C3=C(CCCC3=O)N(C)C3=C2C(=O)CCC3)cc1OC", "values": [
      {"measurement": "AC50", "setting": "cells", "value": "> 52 µM (inactive)"}
    ]},
    {"smiles": "Cc1nn2c(O)c3c(nc2c1-c1ccccc1)CCC3", "values": [
      {"measurement": "Ki", "setting": "fMet-Leu-Phe receptor", "value": "20.4 µM (inactive)"}
    ]}
  ]
}
